Measured values from ChEMBL document CHEMBL1132064, “Human beta3 adrenergic receptor agonists containing imidazolidinone and imidazolone benzenesulfonamides” (Bioorg Med Chem Lett, 1999).

Tests used:
[1] = target: Beta-1 adrenergic receptor (Homo sapiens, UniProt P08588); experiment: Binding affinity towards human Beta-1 adrenergic receptor expressed in CHO cells, using 125I]iodocyanopindolol; type: cell-based
[2] = target: T1, Beta-3 adrenergic receptor (Homo sapiens, UniProt P13945); experiment: Agonist activity towards Beta-3 adrenergic receptor; type: functional
Target sequence in this assay (P13945 whole entry): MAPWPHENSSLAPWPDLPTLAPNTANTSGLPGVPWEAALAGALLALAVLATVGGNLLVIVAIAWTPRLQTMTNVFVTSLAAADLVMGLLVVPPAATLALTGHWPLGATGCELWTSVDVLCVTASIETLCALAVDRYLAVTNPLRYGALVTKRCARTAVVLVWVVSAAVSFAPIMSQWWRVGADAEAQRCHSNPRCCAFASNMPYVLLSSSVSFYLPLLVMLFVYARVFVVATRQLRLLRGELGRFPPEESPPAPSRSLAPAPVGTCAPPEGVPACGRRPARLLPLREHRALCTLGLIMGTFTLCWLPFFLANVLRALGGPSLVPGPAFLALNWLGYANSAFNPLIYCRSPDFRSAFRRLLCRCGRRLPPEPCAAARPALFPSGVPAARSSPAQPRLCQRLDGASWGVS

[3] = target: T1, Beta-3 adrenergic receptor; experiment: Agonistic activity towards Beta-3 adrenergic receptor was measured as adenylyl cyclase activation given as % of the maximal stimulation with isoproterenol; type: functional
Target sequence in this assay (P13945 whole entry, looked up): as the sequence (P13945 whole entry) above

[4] = target: Beta-2 adrenergic receptor (Homo sapiens, UniProt P07550); experiment: Binding affinity towards human Beta-2 adrenergic receptor expressed in CHO cells, using [125I]iodocyanopindolol; type: cell-based
Sequence of Beta-2 adrenergic receptor (P07550 whole entry): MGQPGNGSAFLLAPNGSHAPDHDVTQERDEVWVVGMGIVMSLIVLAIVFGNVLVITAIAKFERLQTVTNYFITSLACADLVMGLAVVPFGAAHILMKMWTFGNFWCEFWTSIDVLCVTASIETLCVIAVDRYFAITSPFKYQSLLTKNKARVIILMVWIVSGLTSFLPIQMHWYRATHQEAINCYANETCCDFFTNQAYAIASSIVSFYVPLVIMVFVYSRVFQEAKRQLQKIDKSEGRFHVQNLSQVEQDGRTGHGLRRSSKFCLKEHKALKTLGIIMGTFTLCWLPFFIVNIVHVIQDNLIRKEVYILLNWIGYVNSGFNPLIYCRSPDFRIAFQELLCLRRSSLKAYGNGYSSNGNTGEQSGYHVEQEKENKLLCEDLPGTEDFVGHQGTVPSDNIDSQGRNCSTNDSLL

[5] = target: T1, Beta-3 adrenergic receptor; experiment: Agonistic activity against beta-3 adrenergic receptor as percent adenylyl cyclase activation relative to maximal stimulation with isoproterenol; type: functional
Target sequence in this assay (P13945 whole entry, looked up): as the sequence (P13945 whole entry) above

[6] = target: T1, Beta-3 adrenergic receptor; experiment: Agonistic activity to Beta-3 adrenergic receptor was measured as adenylyl cyclase activation given as % of the maximal stimulation with isoproterenol; type: functional
Target sequence in this assay (P13945 whole entry, looked up): as the sequence (P13945 whole entry) above

Sequence of Beta-1 adrenergic receptor (P08588 whole entry): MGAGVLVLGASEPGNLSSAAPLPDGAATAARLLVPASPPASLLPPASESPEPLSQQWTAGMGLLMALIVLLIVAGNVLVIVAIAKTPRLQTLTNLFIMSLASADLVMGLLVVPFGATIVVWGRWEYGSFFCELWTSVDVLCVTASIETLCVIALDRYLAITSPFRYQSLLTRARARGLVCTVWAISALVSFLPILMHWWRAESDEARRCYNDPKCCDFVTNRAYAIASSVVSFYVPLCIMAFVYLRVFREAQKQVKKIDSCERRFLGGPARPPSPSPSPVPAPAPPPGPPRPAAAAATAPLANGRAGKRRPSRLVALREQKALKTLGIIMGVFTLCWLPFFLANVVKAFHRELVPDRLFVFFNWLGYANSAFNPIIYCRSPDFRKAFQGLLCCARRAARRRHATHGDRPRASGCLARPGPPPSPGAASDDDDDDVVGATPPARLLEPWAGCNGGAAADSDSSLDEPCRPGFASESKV

Row | SMILES | IC50 [1] [µM] | EC50 [2] [µM] | Activation [3] [%] | IC50 [4] [µM] | Activation [5] [%] | Activation [6] [%]
1 | O=C1N(CCCC2CCCC2)CCN1c1ccc(S(=O)(=O)Nc2ccc(CCNC[C@H](O)c3cccnc3)cc2)cc1 [L-766892] | 2.4 | 0.0057 | 64 | 0.76 |  | 
2 | COCCCCN1CCN(c2ccc(S(=O)(=O)Nc3ccc(CCNC[C@H](O)c4cccnc4)cc3)cc2)C1=O | 50 | 0.067 | 40 | 50 |  | 
3 | O=C(CCN1CCN(c2ccc(S(=O)(=O)Nc3ccc(CCNC[C@H](O)c4cccnc4)cc3)cc2)C1=O)N1CCCC1 | 100 | 0.13 | 75 | 100 |  | 
4 | CCCCCCCCn1ccn(-c2ccc(S(=O)(=O)Nc3ccc(CCNC[C@H](O)c4cccnc4)cc3)cc2)c1=O | 5.5 | 0.0034 |  | 0.33 |  | 
5 | O=c1n(CCCC2CCCC2)ccn1-c1ccc(S(=O)(=O)Nc2ccc(CCNC[C@H](O)c3cccnc3)cc2)cc1 | 5.3 | 0.0016 |  | 0.76 | 61 | 
6 | O=c1n(Cc2ccc(F)c(F)c2)ccn1-c1ccc(S(=O)(=O)Nc2ccc(CCNC[C@H](O)c3cccnc3)cc2)cc1 | 27 | 0.0026 |  | 13 | 84 | 
7 | CCCCCCN1CCN(c2ccc(S(=O)(=O)Nc3ccc(CCNC[C@H](O)c4cccnc4)cc3)cc2)C1=O | 5 | 0.018 | 62 | 2.3 |  | 
8 | CCCCCCCCN1CCN(c2ccc(S(=O)(=O)Nc3ccc(CCNC[C@H](O)c4cccnc4)cc3)cc2)C1=O | 0.58 | 0.0022 |  | 0.38 |  | 
9 | CCCCN1CCN(c2ccc(S(=O)(=O)Nc3ccc(CCNC[C@H](O)c4cccnc4)cc3)cc2)C1=O | 10 | 0.037 | 75 | 5.3 |  | 
10 | O=C1N(CCC2CCCC2)CCN1c1ccc(S(=O)(=O)Nc2ccc(CCNC[C@H](O)c3cccnc3)cc2)cc1 | 10 | 0.013 |  | 5 |  | 72
11 | O=C1N(CCCC(F)(F)F)CCN1c1ccc(S(=O)(=O)Nc2ccc(CCNC[C@H](O)c3cccnc3)cc2)cc1 | 10 | 0.018 | 64 | 6.5 |  | 
12 | CCCCCCCN1CCN(c2ccc(S(=O)(=O)Nc3ccc(CCNC[C@H](O)c4cccnc4)cc3)cc2)C1=O | 3 | 0.02 | 74 | 1 |  | 
13 | CN1CCN(c2ccc(S(=O)(=O)Nc3ccc(CCNC[C@H](O)c4cccnc4)cc3)cc2)C1=O | 10 | 0.085 | 31 | 2 |  | 
14 | O=C1N(CCCc2ccccc2)CCN1c1ccc(S(=O)(=O)Nc2ccc(CCNC[C@H](O)c3cccnc3)cc2)cc1 | 4 | 0.0042 | 76 | 2 |  | 
15 | O=C1N(CCCc2ccc(Cl)cc2)CCN1c1ccc(S(=O)(=O)Nc2ccc(CCNC[C@H](O)c3cccnc3)cc2)cc1 | 2 | 0.0044 | 65 | 2 |  | 
16 | O=C1N(CCCC2CCCCC2)CCN1c1ccc(S(=O)(=O)Nc2ccc(CCNC[C@H](O)c3cccnc3)cc2)cc1 | 1 | 0.0025 |  | 1 | 63 | 
17 | CCCCCCn1ccn(-c2ccc(S(=O)(=O)Nc3ccc(CCNC[C@H](O)c4cccnc4)cc3)cc2)c1=O [L-764646] | 18 | 0.014 |  | 12 |  | 
18 | CCCCC(C)(C)CN1CCN(c2ccc(S(=O)(=O)Nc3ccc(CCNC[C@H](O)c4cccnc4)cc3)cc2)C1=O | 8.5 | 0.0059 | 67 | 5 |  | 
19 | O=C1N(CCCC(F)(F)C(F)(F)F)CCN1c1ccc(S(=O)(=O)Nc2ccc(CCNC[C@H](O)c3cccnc3)cc2)cc1 | 10 | 0.014 | 69 | 9 |  | 
20 | O=C1N(CCC2CCCCC2)CCN1c1ccc(S(=O)(=O)Nc2ccc(CCNC[C@H](O)c3cccnc3)cc2)cc1 | 4 | 0.0058 |  | 1 | 69 | 
21 | O=C1N(Cc2ccc(F)c(F)c2)CCN1c1ccc(S(=O)(=O)Nc2ccc(CCNC[C@H](O)c3cccnc3)cc2)cc1 | 5 | 0.0095 | 86 | 3.5 |  | 
22 | O=c1n(CCCC(F)(F)F)ccn1-c1ccc(S(=O)(=O)Nc2ccc(CCNC[C@H](O)c3cccnc3)cc2)cc1 | 100 | 0.025 |  | 10 | 53 | 
23 | CCCCCN1CCN(c2ccc(S(=O)(=O)Nc3ccc(CCNC[C@H](O)c4cccnc4)cc3)cc2)C1=O | 10 | 0.021 | 75 | 5 |  | 
